Measured values as given in ChEMBL document CHEMBL5550154, “Novel biaryloxazolidinone derivatives with broad-spectrum antibacterial activity, favorable drug-like profiles and in vivo efficacy against linezolid-resistant Staphylococcusaureus” (Eur J Med Chem, 2024).
In brackets after ≈: the same amount, converted by molar mass.

Experiments:
[1] = Microsomal stability in rat liver microsomes assessed as parent compound remaining pretreated with compound upto 60 mins followed by NADPH addition and measured after 60 mins by LC/MS analysis; assay type: ADME, Microsome; conditions: time < 120 min; for remaining at 2 h: liver microsomes, read-out: Stability
Cytochrome P450 2C19 = Cytochrome P450 2C19 (Homo sapiens, UniProt P33261); assay: Inhibition of CYP2C19 in human liver microsomes […] preincubated with compound for 5 mins followed by substrate addition and measured after 120 mins in presence of NADPH by LC-MS/MS analysis; assay type: ADME, Microsome
Chain of Cytochrome P450 2C19 (P33261 whole entry): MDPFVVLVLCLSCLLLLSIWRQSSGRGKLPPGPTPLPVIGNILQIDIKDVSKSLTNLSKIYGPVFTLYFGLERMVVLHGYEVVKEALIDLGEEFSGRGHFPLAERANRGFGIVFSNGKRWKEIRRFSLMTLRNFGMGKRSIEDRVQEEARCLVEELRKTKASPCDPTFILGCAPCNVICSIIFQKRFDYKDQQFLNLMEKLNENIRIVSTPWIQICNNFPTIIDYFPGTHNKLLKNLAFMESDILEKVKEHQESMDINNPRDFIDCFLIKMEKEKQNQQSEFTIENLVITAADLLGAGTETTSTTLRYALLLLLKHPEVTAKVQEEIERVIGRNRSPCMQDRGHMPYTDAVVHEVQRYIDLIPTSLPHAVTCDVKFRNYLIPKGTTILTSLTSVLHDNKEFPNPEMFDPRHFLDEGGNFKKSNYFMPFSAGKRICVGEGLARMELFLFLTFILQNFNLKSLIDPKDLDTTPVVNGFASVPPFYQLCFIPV

[2] = Clearance in Sprague-Dawley rat at 1 mg/kg, iv measured upto 24 hrs by LC-MS analysis; assay type: ADME, organism-based; conditions: in vivo
[3] = AUC (0 to t) in Sprague-Dawley rat at 1 mg/kg, iv measured upto 24 hrs by LC-MS analysis; assay type: ADME, organism-based; conditions: in vivo
[4] = AUC (0 to t) in ICR mouse at 10 mg/kg, IG measured upto 24 hrs by LC-MS analysis; assay type: ADME, organism-based; conditions: in vivo, po
[5] = Microsomal stability in mouse liver microsomes assessed as intrinsic clearance pretreated with compound upto 60 mins followed by NADPH addition and measured after 60 mins by LC/MS analysis; assay type: ADME, Microsome; conditions: time < 120 min, read-out: CLH
[6] = Tmax in Sprague-Dawley rat at 10 mg/kg, IG measured upto 24 hrs by LC-MS analysis; assay type: ADME, organism-based; conditions: in vivo, po
[7] = Stability in monkey plasma assessed as parent compound remaining at 25 degreeC measured upto 60 mins by HPLC analysis; assay type: ADME, cell-free, Macaca mulatta; conditions: rhesus monkey; for remaining at 1 h: read-out: Stability
Cytochrome P450 3A4 = Cytochrome P450 3A4 (Homo sapiens, UniProt P08684); assay: Inhibition of CYP3A4 in human liver microsomes […] preincubated with compound for 5 mins followed by substrate addition and measured after 120 mins in presence of NADPH by LC-MS/MS analysis; assay type: ADME, Microsome
Chain of Cytochrome P450 3A4 (P08684 whole entry): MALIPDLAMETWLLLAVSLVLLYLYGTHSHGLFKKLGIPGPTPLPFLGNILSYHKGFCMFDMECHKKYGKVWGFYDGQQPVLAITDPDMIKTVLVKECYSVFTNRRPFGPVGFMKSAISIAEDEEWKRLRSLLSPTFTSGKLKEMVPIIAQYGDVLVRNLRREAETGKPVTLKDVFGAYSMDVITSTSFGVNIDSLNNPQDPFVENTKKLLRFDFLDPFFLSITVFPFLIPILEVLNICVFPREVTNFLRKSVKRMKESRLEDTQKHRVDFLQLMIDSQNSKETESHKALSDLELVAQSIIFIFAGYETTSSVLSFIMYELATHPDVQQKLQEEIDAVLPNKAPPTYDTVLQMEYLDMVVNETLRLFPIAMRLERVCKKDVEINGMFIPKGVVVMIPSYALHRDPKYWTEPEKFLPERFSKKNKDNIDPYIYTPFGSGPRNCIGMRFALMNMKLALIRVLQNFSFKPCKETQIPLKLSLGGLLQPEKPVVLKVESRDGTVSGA

[8] = Stability in monkey plasma assessed as parent compound remaining at 37 degreeC measured upto 60 mins by HPLC analysis; assay type: ADME, cell-free, Macaca mulatta; conditions: rhesus monkey, read-out: Stability
Cytochrome P450 2C9 = Cytochrome P450 2C9 (Homo sapiens, UniProt P11712); assay: Inhibition of CYP2C9 in human liver microsomes using […] preincubated with compound for 5 mins followed by substrate addition and measured after 120 mins in presence of NADPH by LC-MS/MS analysis; assay type: ADME, Microsome
Chain of Cytochrome P450 2C9 (P11712 whole entry): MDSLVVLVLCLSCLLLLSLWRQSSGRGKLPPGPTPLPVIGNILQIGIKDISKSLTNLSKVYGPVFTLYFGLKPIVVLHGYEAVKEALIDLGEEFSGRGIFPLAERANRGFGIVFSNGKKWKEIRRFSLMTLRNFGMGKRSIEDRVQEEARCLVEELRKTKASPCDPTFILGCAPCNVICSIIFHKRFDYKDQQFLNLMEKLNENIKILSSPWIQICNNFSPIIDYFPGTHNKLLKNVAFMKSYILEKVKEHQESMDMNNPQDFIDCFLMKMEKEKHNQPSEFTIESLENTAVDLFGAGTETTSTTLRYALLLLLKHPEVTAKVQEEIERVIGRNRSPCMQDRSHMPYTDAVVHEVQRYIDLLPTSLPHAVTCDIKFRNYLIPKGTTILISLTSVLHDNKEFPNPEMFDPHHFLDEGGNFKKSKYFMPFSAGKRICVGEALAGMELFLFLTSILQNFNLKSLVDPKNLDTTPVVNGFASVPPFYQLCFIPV

[9] = Stability in dog plasma assessed as parent compound remaining at 25 degreeC measured upto 60 mins by HPLC analysis; assay type: ADME, cell-free, Canis lupus familiaris; conditions: read-out: Stability
[10] = Elimination half life in Sprague-Dawley rat at 1 mg/kg, iv measured upto 24 hrs by LC-MS analysis; assay type: ADME, organism-based; conditions: in vivo, read-out: beta t1/2 (converted)
[11] = Plasma protein binding in mouse incubated for 6 hrs by LC-MS/MS analysis; assay type: ADME, cell-free; conditions: read-out: PPB (converted)
[12] = Microsomal stability in monkey liver microsomes assessed as parent compound remaining pretreated with compound upto 60 mins followed by NADPH addition and measured after 60 mins by LC/MS analysis; assay type: ADME, Macaca mulatta, Microsome; conditions: rhesus monkey, time < 120 min, read-out: Stability
Enterococcus faecalis = assay: Antibacterial activity against linezolid-resistant Enterococcus faecalis assessed as inhibition of bacterial growth incubated for 16 to 20 hrs by CLSI based broth liquid microdilution method; assay type: functional; conditions: time 16-20 hrs
[13] = Microsomal stability in mouse liver microsomes assessed as parent compound remaining pretreated with compound upto 60 mins followed by NADPH addition and measured after 60 mins by LC/MS analysis; assay type: ADME, Microsome; conditions: time < 120 min; for remaining at 2 h: liver microsomes, read-out: Stability
[14] = Stability in rat plasma assessed as parent compound remaining at 37 degreeC measured upto 60 mins by HPLC analysis; assay type: ADME, cell-free; conditions: read-out: Stability
[15] = Aqueous solubility of compound at pH 7.4 by LC-MS/MS analysis; assay type: physicochemical; conditions: buffer
Cytochrome P450 1A2 = biological target: T1, Cytochrome P450 1A2 (Homo sapiens, UniProt P05177); assay: Inhibition of CYP1A2 in human liver microsomes with alpha-naphthoflavone as reference inhibitor preincubated with compound for 5 mins followed by substrate addition and measured after 120 mins in presence of NADPH by LC-MS/MS analysis; assay type: ADME, Microsome
T1 sequence (P05177 whole entry): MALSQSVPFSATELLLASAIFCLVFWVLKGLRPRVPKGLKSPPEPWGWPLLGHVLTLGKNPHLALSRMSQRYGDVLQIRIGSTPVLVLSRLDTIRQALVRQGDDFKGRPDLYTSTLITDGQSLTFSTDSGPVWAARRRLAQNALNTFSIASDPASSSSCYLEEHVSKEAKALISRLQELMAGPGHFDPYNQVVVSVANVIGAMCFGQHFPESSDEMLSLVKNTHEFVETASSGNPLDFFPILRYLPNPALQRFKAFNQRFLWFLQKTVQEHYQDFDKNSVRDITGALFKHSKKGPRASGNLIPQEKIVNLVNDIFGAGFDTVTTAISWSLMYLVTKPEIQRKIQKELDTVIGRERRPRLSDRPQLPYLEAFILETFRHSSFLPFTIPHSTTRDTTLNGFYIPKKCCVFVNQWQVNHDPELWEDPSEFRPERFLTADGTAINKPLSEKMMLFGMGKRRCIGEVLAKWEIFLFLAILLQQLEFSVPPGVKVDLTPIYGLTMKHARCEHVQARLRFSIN

[16] = Volume of distribution at steady state in ICR mouse at 1 mg/kg, iv measured upto 24 hrs by LC-MS analysis; assay type: ADME, organism-based; conditions: in vivo, read-out: Vdss
[17] = Microsomal stability in human liver microsomes assessed as elimination half life pretreated with compound upto 60 mins followed by NADPH addition and measured after 60 mins by LC/MS analysis; assay type: ADME, Microsome; conditions: time < 120 min; for half-life: liver microsomes, read-out: beta t1/2
[18] = Microsomal stability in rat liver microsomes assessed as intrinsic clearance pretreated with compound upto 60 mins followed by NADPH addition and measured after 60 mins by LC/MS analysis; assay type: ADME, Microsome; conditions: time < 120 min, read-out: CLH
[19] = Elimination half life in Sprague-Dawley rat at 10 mg/kg, IG measured upto 24 hrs by LC-MS analysis; assay type: ADME, organism-based; conditions: in vivo, po, read-out: beta t1/2 (converted)
[20] = Microsomal stability in dog liver microsomes assessed as elimination half life pretreated with compound upto 60 mins followed by NADPH addition and measured after 60 mins by LC/MS analysis; assay type: ADME, Canis lupus familiaris, Microsome; conditions: time < 120 min; for half-life: liver microsomes, read-out: beta t1/2
[21] = AUC (0 to t) in ICR mouse at 1 mg/kg, iv measured upto 24 hrs by LC-MS analysis; assay type: ADME, organism-based; conditions: in vivo
[22] = Stability in mouse plasma assessed as parent compound remaining at 25 degreeC measured upto 60 mins by HPLC analysis; assay type: ADME, cell-free; conditions: for Stability: 1 h; for remaining at 1 h: read-out: Stability
[23] = Microsomal stability in monkey liver microsomes assessed as elimination half life pretreated with compound upto 60 mins followed by NADPH addition and measured after 60 mins by LC/MS analysis; assay type: ADME, Macaca mulatta, Microsome; conditions: rhesus monkey, time < 120 min, read-out: beta t1/2
[24] = Cmax in Sprague-Dawley rat at 10 mg/kg, IG measured upto 24 hrs by LC-MS analysis; assay type: ADME, organism-based; conditions: in vivo, po
[25] = Microsomal stability in human liver microsomes assessed as intrinsic clearance pretreated with compound upto 60 mins followed by NADPH addition and measured after 60 mins by LC/MS analysis; assay type: ADME, Microsome; conditions: time < 120 min, read-out: CLH
[26] = Bioavailability in Sprague-Dawley rat at 10 mg/kg, IG measured upto 24 hrs by LC-MS analysis; assay type: ADME, organism-based; conditions: in vivo, po
[27] = Half life in ICR mouse at 10 mg/kg, IG measured upto 24 hrs by LC-MS analysis; assay type: ADME, organism-based; conditions: in vivo, po

Row | SMILES | remaining at 2 h [1] | IC50 (Cytochrome P450 2C19) | clearance [2] | AUC(0-t) at 24 h [3] | AUC(0-t) at 24 h [4] | microsomal CLint [5] | Tmax [6] | IC50 (Cytochrome P450 3A4) | remaining at 1 h [8] | IC50 (Cytochrome P450 2C9) | remaining at 1 h [9] | half-life [10] | fraction unbound at 6 h [11] | remaining at 2 h [12] | remaining at 1 h [14] | IC50 (Cytochrome P450 1A2) | microsomal CLint [18] | half-life [19] | half-life [23] | Cmax [24] | other results
1 | O=C1O[C@@H](CO)CN1c1ccc(-c2ccc(/C=N/N3CCCCC3)nc2)c(F)c1 | 63.3% | 0.858 µM | 11.6 mL/min/kg | 1400 ng·h/mL | 4740 ng·h/mL | 9.37 µL/min/mg | 1.67 h | > 30 µM | 105% | 5.38 µM | 97.4% | 1.23 h | 0.013 | 59% | 104% | > 30 µM | 14.5 µL/min/mg | 2.72 h | 1.34 h | 1380 ng/mL | remaining at 1 h [7]: 120%; MIC (Enterococcus faecalis): 0.5 µg/mL (≈ 1.25 µM); remaining at 2 h [13]: 75.2%; solubility [15]: 9.94 µM (≈ 3.96 µg/mL); Vd [16]: 1.31 L/kg; beta t1/2 ([17]; microsomes, 2 h): 2 h; half-life [20]: 1.78 h; AUC(0-t) at 24 h [21]: 1190 ng·h/mL; Stability [22]: 123%; microsomal CLint [25]: 11.8 µL/min/mg; bioavailability [26]: 51.1%
2 | CC(C)N/N=C/c1ccc(-c2ccc(N3C[C@H](CO)OC3=O)cc2F)cn1 | – | 11 µM | 10.3 mL/min/kg | 1580 ng·h/mL | 613 ng·h/mL | 18.4 µL/min/mg | 1.17 h | 16.5 µM | 106% | > 30 µM | 112% | 0.98 h | 0.048 | 66% | 102% | > 30 µM | 12.6 µL/min/mg | 1.94 h | 1.68 h | 2480 ng/mL | Stability ([1]; microsomes, 2 h): 70.2%; remaining at 1 h [7]: 108%; MIC (Enterococcus faecalis): 1 µg/mL (≈ 2.69 µM); Stability ([13]; microsomes, 2 h): 57.9%; solubility [15]: 30.2 µM (≈ 11.2 µg/mL); Vd [16]: 0.42 L/kg; half-life [17]: 4.68 h; half-life [20]: 3.37 h; AUC(0-t) at 24 h [21]: 475 ng·h/mL; remaining at 1 h [22]: 113%; half-life [27]: 3.3 h; microsomal CLint [25]: 5.78 µL/min/mg; bioavailability [26]: 65.8%
3 | O=C1O[C@@H](CO)CN1c1ccc(-c2ccc(/C=N/N3CCS(=O)(=O)CC3)nc2)c(F)c1 | 92.8% | > 30 µM | 14.7 mL/min/kg | 1120 ng·h/mL | – | 1.07 µL/min/mg | 0.42 h | > 30 µM | 103% | > 30 µM | 113% | 0.72 h | 0.245 | 98.8% | 106% | > 30 µM | 2.07 µL/min/mg | 4.28 h | 9.68 h | 597 ng/mL | Stability ([7]; 1 h): 144%; MIC (Enterococcus faecalis): 0.5 µg/mL (≈ 1.11 µM); remaining at 2 h [13]: 96%; solubility [15]: 20 µM (≈ 8.97 µg/mL); half-life [17]: 15.3 h; beta t1/2 ([20]; microsomes, 2 h): 98.85 h; Stability [22]: 133%; microsomal CLint [25]: 1.51 µL/min/mg; bioavailability [26]: 19.8%
4 | O=C1O[C@@H](CO)CN1c1ccc(-c2ccc(/C=N/N3CCOCC3)nc2)c(F)c1 | 93.4% | > 30 µM | 14 mL/min/kg | 1220 ng·h/mL | 29300 ng·h/mL | 2.02 µL/min/mg | 1.33 h | > 30 µM | 103% | > 30 µM | 107% | 0.8 h | 0.117 | 93.3% | 103% | > 30 µM | 2.3 µL/min/mg | 1.49 h | 7.78 h | 2320 ng/mL | remaining at 1 h [7]: 113%; MIC (Enterococcus faecalis): 0.5 µg/mL (≈ 1.25 µM); remaining at 2 h [13]: 96%; solubility [15]: 10.9 µM (≈ 4.36 µg/mL); Vd [16]: 0.87 L/kg; half-life [17]: 1.83 h; half-life [20]: 19.2 h; AUC(0-t) at 24 h [21]: 2640 ng·h/mL; Stability [22]: 125%; half-life [27]: 2.85 h; microsomal CLint [25]: 12.7 µL/min/mg; bioavailability [26]: 68.1%
5 | CC(=O)NC[C@H]1CN(c2ccc(N3CCOCC3)c(F)c2)C(=O)O1 [LINEZOLID] | 93.9% | > 30 µM | 24.7 mL/min/kg | 719 ng·h/mL | 24000 ng·h/mL | 2.18 µL/min/mg | 0.5 h | > 30 µM | 105% | > 30 µM | 99.1% | 0.41 h | 0.721 | 99.4% | 107% | > 30 µM | 2.22 µL/min/mg | 1.08 h | 51.8 h | 4830 ng/mL | remaining at 1 h [7]: 99.4%; remaining at 2 h [13]: 92.3%; Vd [16]: 0.56 L/kg; half-life [20]: 34.6 h; AUC(0-t) at 24 h [21]: 794 ng·h/mL; remaining at 1 h [22]: 110%; half-life [27]: 0.8 h
